Results on three molecules are retold here after the NIST ThermoML archive (doi:10.1016/j.jct.2008.10.013).

The structures appear in SMILES notation. Numbers after ± are expanded uncertainties.

For this data set the following is noted: 298.15 K; 101.33 kPa; Liquid; Vibrating tube method.

With `C=C(C)[C@H]1CC=C(C)CC1` [(R)-1-methyl-4-(1-methylethenyl)cyclohexene], the mass density came to 837.31 ± 0.31 kg/m3. As for `CCO` [ethanol], the mass density was found to be 785.24 ± 0.19 kg/m3.

As to `CO` [methanol], the mass density came to 786.62 ± 0.17 kg/m3.
